Results from patent publication US6689773B2, “Uracil substituted phenyl sulfamoyl carboxamides” (BASF Aktiengesellschaft, priority 2000, dated 2004).

Columns and labels:
Format in all cases: in vivo
[1] = tested on: AMBEL, Ragweed, Common, Ambrosia artemiisifolia, L.; assay: Postemergence herbicidal evaluation (Example 147); conditions: rating scale 0-9, two to three weeks after treatment
Summary of the method: (§1)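 Seedlings grown about two weeks, then sprayed (nozzle at 40 psi) with compound in 80/20 acetone/water plus 1.0% methylated seed oil at about 0.016 to 0.032 kg/ha. Kept in greenhouse; visual injury rated 0-9 versus untreated control two to three weeks after treatment; replicate tests averaged.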

[2] = tested on: CHEAL, Lambsquarters, Chenopodium album, L. Common; assay: Postemergence herbicidal evaluation (Example 147); conditions: rating scale 0-9, two to three weeks after treatment
Summary of the method: as §1

[3] = tested on: SETVI, Green foxtail, Setaria viridis, (L.)Beau; assay: Postemergence herbicidal evaluation (Example 147); conditions: rating scale 0-9, two to three weeks after treatment
Summary of the method: as §1

[4] = tested on: ABUTH, Velvetleaf, Abutilon theophrasti, Medic.; assay: Postemergence herbicidal evaluation (Example 147); conditions: rating scale 0-9, two to three weeks after treatment
Summary of the method: as §1

[5] = tested on: ALOMY, Blackgrass, Alopecurus myosuroides; assay: Postemergence herbicidal evaluation (Example 147); conditions: rating scale 0-9, two to three weeks after treatment
Summary of the method: as §1

[6] = tested on: TRZAW, Winter wheat, Tritium Aestivum, L. (Winter); assay: Postemergence herbicidal evaluation (Example 147); conditions: rating scale 0-9, two to three weeks after treatment
Summary of the method: as §1

[7] = tested on: GLXMA, Soybean, Glycine max, (L.) Merr.; assay: Postemergence herbicidal evaluation (Example 147); conditions: rating scale 0-9, two to three weeks after treatment
Summary of the method: as §1

[8] = tested on: DIGSA, Crabgrass, (Hairy) L, Digitaria sanguinalis, (L)Scop; assay: Postemergence herbicidal evaluation (Example 147); conditions: rating scale 0-9, two to three weeks after treatment
Summary of the method: as §1

[9] = tested on: ECHCG, Barnyardgrass, Echinochloa crusgalli, (L.)Beau; assay: Postemergence herbicidal evaluation (Example 147); conditions: rating scale 0-9, two to three weeks after treatment
Summary of the method: as §1

[10] = tested on: IPOHE, Morningglory, Ivyleaf, Ipomoea hederacea, (L)Jacq.; assay: Postemergence herbicidal evaluation (Example 147); conditions: rating scale 0-9, two to three weeks after treatment
Summary of the method: as §1

[11] = tested on: ZEAMX, Field corn, Zea mays L.; assay: Postemergence herbicidal evaluation (Example 147); conditions: rating scale 0-9, two to three weeks after treatment
Summary of the method: as §1

[12] = tested on: XANST, Cocklebur, Xanthium strumariam; assay: Postemergence herbicidal evaluation (Example 147); conditions: rating scale 0-9, two to three weeks after treatment
Summary of the method: as §1

[13] = tested on: AMBEL, Ragweed, Common, Ambrosia artemiisifolia, L.; assay: Preemergence herbicidal evaluation (Example 148); conditions: rating scale 0-9, two to four weeks after treatment
Summary of the method: (§2)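 Each species was planted separately in cups, its seed mixed into potting soil over roughly an inch of soil. Spraying with compound in aqueous acetone followed planting (~0.125–0.250 kg/ha). Overall appearance, chlorosis and stand were compared with a control after 2–4 weeks.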

[14] = tested on: CHEAL, Lambsquarters, Chenopodium album, L. Common; assay: Preemergence herbicidal evaluation (Example 148); conditions: rating scale 0-9, two to four weeks after treatment
Summary of the method: as §2

[15] = tested on: SETVI, Green foxtail, Setaria viridis, (L.)Beau; assay: Preemergence herbicidal evaluation (Example 148); conditions: rating scale 0-9, two to four weeks after treatment
Summary of the method: as §2

[16] = tested on: ABUTH, Velvetleaf, Abutilon theophrasti, Medic.; assay: Preemergence herbicidal evaluation (Example 148); conditions: rating scale 0-9, two to four weeks after treatment
Summary of the method: as §2

[17] = tested on: ALOMY, Blackgrass, Alopecurus myosuroides; assay: Preemergence herbicidal evaluation (Example 148); conditions: rating scale 0-9, two to four weeks after treatment
Summary of the method: as §2

[18] = tested on: TRZAW, Winter wheat, Tritium Aestivum, L. (Winter); assay: Preemergence herbicidal evaluation (Example 148); conditions: rating scale 0-9, two to four weeks after treatment
Summary of the method: as §2

[19] = tested on: GLXMA, Soybean, Glycine max, (L.) Merr.; assay: Preemergence herbicidal evaluation (Example 148); conditions: rating scale 0-9, two to four weeks after treatment
Summary of the method: as §2

[20] = tested on: DIGSA, Crabgrass, (Hairy) L, Digitaria sanguinalis, (L)Scop; assay: Preemergence herbicidal evaluation (Example 148); conditions: rating scale 0-9, two to four weeks after treatment
Summary of the method: as §2

[21] = tested on: ECHCG, Barnyardgrass, Echinochloa crusgalli, (L.)Beau; assay: Preemergence herbicidal evaluation (Example 148); conditions: rating scale 0-9, two to four weeks after treatment
Summary of the method: as §2

[22] = tested on: IPOHE, Morningglory, Ivyleaf, Ipomoea hederacea, (L)Jacq.; assay: Preemergence herbicidal evaluation (Example 148); conditions: rating scale 0-9, two to four weeks after treatment
Summary of the method: as §2

[23] = tested on: ZEAMX, Field corn, Zea mays L.; assay: Preemergence herbicidal evaluation (Example 148); conditions: rating scale 0-9, two to four weeks after treatment
Summary of the method: as §2

[24] = tested on: XANST, Cocklebur, Xanthium strumariam; assay: Preemergence herbicidal evaluation (Example 148); conditions: rating scale 0-9, two to four weeks after treatment
Summary of the method: as §2

SMILES: CCCCN(C)S(=O)(=O)NC(=O)c1cc(-n2c(=O)cc(C(F)(F)F)n(C)c2=O)c(F)cc1Cl [Example 83]
- Postemergence herbicidal rating AMBEL ([1]; rate 0.016 kg/ha): 6.0
- Postemergence herbicidal rating AMBEL ([1]; rate 0.032 kg/ha): 8.0
- Postemergence herbicidal rating CHEAL ([2]; rate 0.016 kg/ha): 5.0
- Postemergence herbicidal rating CHEAL ([2]; rate 0.032 kg/ha): 5.0
- Postemergence herbicidal rating SETVI ([3]; rate 0.016 kg/ha): 7.0
- Postemergence herbicidal rating SETVI ([3]; rate 0.032 kg/ha): 8.0
- Postemergence herbicidal rating ABUTH ([4]; rate 0.016 kg/ha): 9.0
- Postemergence herbicidal rating ABUTH ([4]; rate 0.032 kg/ha): 9.0
- Postemergence herbicidal rating ALMOY ([5]; rate 0.016 kg/ha): 0.0
- Postemergence herbicidal rating ALMOY ([5]; rate 0.032 kg/ha): 1.0
- Postemergence herbicidal rating TRZAW ([6]; rate 0.016 kg/ha): 4.5
- Postemergence herbicidal rating TRZAW ([6]; rate 0.032 kg/ha): 5.5
- Postemergence herbicidal rating GLXMA ([7]; rate 0.016 kg/ha): 7.0
- Postemergence herbicidal rating GLXMA ([7]; rate 0.032 kg/ha): 7.5
- Postemergence herbicidal rating DIGSA ([8]; rate 0.016 kg/ha): 3.0
- Postemergence herbicidal rating DIGSA ([8]; rate 0.032 kg/ha): 4.0
- Postemergence herbicidal rating ECHCG ([9]; rate 0.016 kg/ha): 8.0
- Postemergence herbicidal rating ECHCG ([9]; rate 0.032 kg/ha): 8.0
- Postemergence herbicidal rating IPOHE ([10]; rate 0.016 kg/ha): 8.0
- Postemergence herbicidal rating IPOHE ([10]; rate 0.032 kg/ha): 9.0
- Postemergence herbicidal rating ZEAMX ([11]; rate 0.016 kg/ha): 5.5
- Postemergence herbicidal rating ZEAMX ([11]; rate 0.032 kg/ha): 6.0
- Postemergence herbicidal rating XANST ([12]; rate 0.016 kg/ha): 9.0
- Postemergence herbicidal rating XANST ([12]; rate 0.032 kg/ha): 9.0
- Preemergence herbicidal rating AMBEL ([13]; rate 0.125 kg/ha): 8.0
- Preemergence herbicidal rating AMBEL ([13]; rate 0.25 kg/ha): 8.0
- Preemergence herbicidal rating CHEAL ([14]; rate 0.125 kg/ha): 9.0
- Preemergence herbicidal rating CHEAL ([14]; rate 0.25 kg/ha): 9.0
- Preemergence herbicidal rating SETVI ([15]; rate 0.125 kg/ha): 3.0
- Preemergence herbicidal rating SETVI ([15]; rate 0.25 kg/ha): 6.0
- Preemergence herbicidal rating ABUTH ([16]; rate 0.125 kg/ha): 8.0
- Preemergence herbicidal rating ABUTH ([16]; rate 0.25 kg/ha): 9.0
- Preemergence herbicidal rating ALMOY ([17]; rate 0.125 kg/ha): 0.0
- Preemergence herbicidal rating ALMOY ([17]; rate 0.25 kg/ha): 0.0
- Preemergence herbicidal rating TRZAW ([18]; rate 0.125 kg/ha): 0.0
- Preemergence herbicidal rating TRZAW ([18]; rate 0.25 kg/ha): 0.0
- Preemergence herbicidal rating GLXMA ([19]; rate 0.125 kg/ha): 1.0
- Preemergence herbicidal rating GLXMA ([19]; rate 0.25 kg/ha): 4.0
- Preemergence herbicidal rating DIGSA ([20]; rate 0.125 kg/ha): 1.0
- Preemergence herbicidal rating DIGSA ([20]; rate 0.25 kg/ha): 9.0
- Preemergence herbicidal rating ECHCG ([21]; rate 0.125 kg/ha): 4.0
- Preemergence herbicidal rating ECHCG ([21]; rate 0.25 kg/ha): 5.0
- Preemergence herbicidal rating IPOHE ([22]; rate 0.125 kg/ha): 7.0
- Preemergence herbicidal rating IPOHE ([22]; rate 0.25 kg/ha): 8.0
- Preemergence herbicidal rating ZEAMX ([23]; rate 0.125 kg/ha): 0.0
- Preemergence herbicidal rating ZEAMX ([23]; rate 0.25 kg/ha): 2.0
- Preemergence herbicidal rating XANST ([24]; rate 0.125 kg/ha): 4.0
- Preemergence herbicidal rating XANST ([24]; rate 0.25 kg/ha): 5.0

SMILES: CN(Cc1cccc(Cl)c1)S(=O)(=O)NC(=O)c1cc(-n2c(=O)cc(C(F)(F)F)n(C)c2=O)c(F)cc1Cl [Example 55]
- Postemergence herbicidal rating AMBEL ([1]; rate 0.016 kg/ha): 8.0
- Postemergence herbicidal rating AMBEL ([1]; rate 0.032 kg/ha): 9.0
- Postemergence herbicidal rating CHEAL ([2]; rate 0.016 kg/ha): 7.0
- Postemergence herbicidal rating CHEAL ([2]; rate 0.032 kg/ha): 7.0
- Postemergence herbicidal rating SETVI ([3]; rate 0.016 kg/ha): 7.0
- Postemergence herbicidal rating SETVI ([3]; rate 0.032 kg/ha): 8.0
- Postemergence herbicidal rating ABUTH ([4]; rate 0.016 kg/ha): 9.0
- Postemergence herbicidal rating ABUTH ([4]; rate 0.032 kg/ha): 9.0
- Postemergence herbicidal rating ALMOY ([5]; rate 0.016 kg/ha): 2.0
- Postemergence herbicidal rating ALMOY ([5]; rate 0.032 kg/ha): 2.0
- Postemergence herbicidal rating TRZAW ([6]; rate 0.016 kg/ha): 6.0
- Postemergence herbicidal rating TRZAW ([6]; rate 0.032 kg/ha): 6.0
- Postemergence herbicidal rating GLXMA ([7]; rate 0.016 kg/ha): 8.0
- Postemergence herbicidal rating GLXMA ([7]; rate 0.032 kg/ha): 8.0
- Postemergence herbicidal rating DIGSA ([8]; rate 0.016 kg/ha): 5.0
- Postemergence herbicidal rating DIGSA ([8]; rate 0.032 kg/ha): 6.0
- Postemergence herbicidal rating ECHCG ([9]; rate 0.016 kg/ha): 7.0
- Postemergence herbicidal rating ECHCG ([9]; rate 0.032 kg/ha): 7.0
- Postemergence herbicidal rating IPOHE ([10]; rate 0.016 kg/ha): 8.0
- Postemergence herbicidal rating IPOHE ([10]; rate 0.032 kg/ha): 9.0
- Postemergence herbicidal rating ZEAMX ([11]; rate 0.016 kg/ha): 8.0
- Postemergence herbicidal rating ZEAMX ([11]; rate 0.032 kg/ha): 8.0
- Postemergence herbicidal rating XANST ([12]; rate 0.016 kg/ha): 9.0
- Postemergence herbicidal rating XANST ([12]; rate 0.032 kg/ha): 8.0
- Preemergence herbicidal rating AMBEL ([13]; rate 0.125 kg/ha): 8.0
- Preemergence herbicidal rating AMBEL ([13]; rate 0.25 kg/ha): 9.0
- Preemergence herbicidal rating CHEAL ([14]; rate 0.125 kg/ha): 8.0
- Preemergence herbicidal rating CHEAL ([14]; rate 0.25 kg/ha): 9.0
- Preemergence herbicidal rating SETVI ([15]; rate 0.125 kg/ha): 6.0
- Preemergence herbicidal rating SETVI ([15]; rate 0.25 kg/ha): 8.0
- Preemergence herbicidal rating ABUTH ([16]; rate 0.125 kg/ha): 9.0
- Preemergence herbicidal rating ABUTH ([16]; rate 0.25 kg/ha): 9.0
- Preemergence herbicidal rating ALMOY ([17]; rate 0.125 kg/ha): 0.0
- Preemergence herbicidal rating ALMOY ([17]; rate 0.25 kg/ha): 0.0
- Preemergence herbicidal rating TRZAW ([18]; rate 0.125 kg/ha): 1.0
- Preemergence herbicidal rating TRZAW ([18]; rate 0.25 kg/ha): 2.0
- Preemergence herbicidal rating GLXMA ([19]; rate 0.125 kg/ha): 8.0
- Preemergence herbicidal rating GLXMA ([19]; rate 0.25 kg/ha): 8.0
- Preemergence herbicidal rating DIGSA ([20]; rate 0.125 kg/ha): 8.0
- Preemergence herbicidal rating DIGSA ([20]; rate 0.25 kg/ha): 8.0
- Preemergence herbicidal rating ECHCG ([21]; rate 0.125 kg/ha): 5.0
- Preemergence herbicidal rating ECHCG ([21]; rate 0.25 kg/ha): 9.0
- Preemergence herbicidal rating IPOHE ([22]; rate 0.125 kg/ha): 8.0
- Preemergence herbicidal rating IPOHE ([22]; rate 0.25 kg/ha): 9.0
- Preemergence herbicidal rating ZEAMX ([23]; rate 0.125 kg/ha): 0.0
- Preemergence herbicidal rating ZEAMX ([23]; rate 0.25 kg/ha): 1.0
- Preemergence herbicidal rating XANST ([24]; rate 0.125 kg/ha): 6.0
- Preemergence herbicidal rating XANST ([24]; rate 0.25 kg/ha): 7.0
